Results taken from patent US20240415989A1, “RADIOLABELED COMPOUND, AND PRECURSOR COMPOUND THEREOF, PREPARATION METHOD THEREFOR, AND APPLICATION THEREOF” (priority 2021, published 2024).

How the values were obtained:
[1] = Lipid-water distribution coefficient (n-octanol/deionized water); assay type: physicochemical
Method: Three 5 ml centrifuge tubes were taken, and numbered as A-(1), A-(2) and A-(3), respectively. 0.5 ml of n-octanol, 0.485 ml of deionized water and 0.25 ml of freshly prepared ^68Ga-DOTA-ibandronic acid with about 0.5 mci were added to each tube, and the centrifuge tubes were shaken by a vortex mixer for 20 minutes, then centrifuged at 2000 r/min for 5 minutes, from which 0.1 ml of upper liquid (organic phase) was respectively collected into 3 corresponding test tubes (numbered as B-(1), B-(2), B-(3), respectively), and 0.1 ml of lower liquid (aqueous phase) was respectively collected into 3 corresponding test tubes (numbered as C-(1), C-(2), C-(3), respectively). The total radioactivity count of the organic phase and that of the aqueous phase were measured by γ counter, respectively, and the lipid-water distribution coefficient lgP was calculated by formula.

plasma protein = assay type: in vitro ADME; details: human
Method: 1 mL of fresh human plasma anticoagulated with heparin was taken for later use. Three EP tubes were taken and numbered as A-(1), A-(2), and A-(3), and were each added with 0.1 ml of fresh human plasma and 0.25 ml of freshly prepared ^68Ga-DOTA-ibandronic acid with about 0.5 mci. Then they were incubated in a metal bath at 37° C. for 30 minutes. Three 5 ml centrifuge tubes were taken and numbered as B-(1), B-(2), and B-(3). The incubated solutions were transferred to the corresponding centrifuge tubes, respectively. Then 1 ml of 25% trichloroacetic acid solution was added to each centrifuge tube, mixed thoroughly, then centrifuged at 2000 r/min for 5 minutes. The supernatants were respectively collected into 3 corresponding test tubes (numbered as C-(1), C-(2), C-(3), respectively). The centrifugation and supernatant collection were repeated 3 times. The total radioactivity count of the precipitations in the centrifuge tubes and that of the supernatants in the test tubes were measured by a γ counter, respectively, and the plasma protein binding rate (PPB) was calculated.

[2] = In vitro stability in normal saline (radiochemical purity by TLC); assay type: physicochemical
Method: Four EP tubes were taken and marked as numbers (1) to (4) in sequence, in which 0.1 ml of normal saline was added to numbers (1) and (2), respectively, 0.1 ml of fresh human serum diluted 10 times was added to numbers (3) and (4), respectively, and then 1.0 mci of freshly prepared ^68Ga-DOTA-ibandronic acid was added to these 4 tubes, respectively. Numbers (1) and (3) were placed at room temperature (25±2° C.) and numbers (2) and (4) were placed in a 37° C. metal bath for incubation. The radiochemical purity values of numbers (1) to (4) were measured using a thin layer paper chromatography (TLC) at 10 min, 30 min, 1 h, 2 h, 3 h, 4 h, respectively.

[3] = test system: PC-3, H1975, MDA-MB-231 bone metastasis models; experiment: Therapeutic effect on tumor-bearing mice, free movement pain behavior scoring; assay type: in vivo, nude mice
Method: In this experimental example, the therapeutic effects of ^177Lu-DOTA-ibandronic acid of the present disclosure on tumor-bearing mice (PC-3, H1975, MDA-MB-231 bone metastasis models) were investigated. The ^177Lu-DOTA-ibandronic acid used in this experimental example was prepared according to the method of Example 6.
(1) Establishment of tumor-bearing mouse models: 24 SPF male nude mice and 12 SPF female nude mice were taken, and anesthetized with isoflurane. Then the skin around the left knee joint was disinfected, and the left hind limb was bent. An insulin needle (29G needle) was inserted into the tibia vertically from concave point of the articular fossa of the tibia, slowly rotated and inserted into the medullary cavity, to inject 25 μl of cell culture (approximately 2×10^6) of PC-3 (12 males), H1975 (12 males), and MDA-MB-231 (12 females). Then disinfection was carried out, and the holes were sealed with sterile bone wax. The animals were placed on a 37° C. hot-plate for rewarming. After resuscitation, they were returned to the cage and continued to be raised.
(2) Testing of tumor-bearing mouse models: After 4 weeks of inoculation, 36 nude mice were scanned using Micro-CT, respectively.
(3) Methods of different treatments and grouping: The 36 successfully modelled tumor-bearing mice were randomly divided into 4 groups. Among them, 2 groups were injected with ^177Lu-DOTA-ibandronic acid with low and high radioactivity (100 μCi, 500 μCi) into the tail vein, respectively, 3 animals in each group; and the animals in the blank control groups were injected with normal saline, and divided into a small volume group and a large volume group (10 μl, 50 μl), 3 animals in each group.
(4) Detection and results of treatment effect: Free movement pain behavior scoring was carried out on days 0, 7, 14, 21, 28, and 35, and used as the main indicator of bone pain relief in the tumor-bearing mice. At the corresponding time points, the tumor-bearing mice were placed in a transparent smooth flat-bottomed plastic box. […]

[4] = high activity 500 μCi, compared with all groups

## CN(CCCCNC(=O)CN1CCN(CC(=O)O)CCN(CC(=O)O)CCN(CC(=O)O)CC1)CCC(O)(P(=O)(O)O)P(=O)(O)O.[68Ga] [^68Ga-DOTA-ibandronic acid]
[1]
  lipid-water distribution coefficient lgP: −2.33
Plasma protein
  plasma protein binding rate (PPB): 81%
[2]; 37° C., 10 min
  Radiochemical purity: 99%
[2]; 37° C., 30 min
  Radiochemical purity: 96%
[2]; 37° C., 1 h
  Radiochemical purity: 96%
[2]; 37° C., 2 h
  Radiochemical purity: 92%
[2]; 37° C., 3 h
  Radiochemical purity: 90%
[2]; 37° C., 4 h
  Radiochemical purity: 87%
[2]; room temperature, 10 min
  Radiochemical purity: 98%
[2]; room temperature, 30 min
  Radiochemical purity: 97%
[2]; room temperature, 1 h
  Radiochemical purity: 95%
[2]; room temperature, 2 h
  Radiochemical purity: 95%
[2]; room temperature, 3 h
  Radiochemical purity: 95%
[2]; room temperature, 4 h
  Radiochemical purity: 93%

## CN(CCCCNC(=O)CN1CCN(CC(=O)O)CCN(CC(=O)O)CCN(CC(=O)O)CC1)CCC(O)(P(=O)(O)O)P(=O)(O)O.[177Lu] [^177Lu-DOTA-ibandronic acid]
[3]; different doses (100 μCi, 500 μCi) versus normal saline
  therapeutic efficacy versus control group: higher than that of the corresponding control group
[3]; [4]
  bone pain relief: relieved to the greatest extent
  survival rate within 5 weeks of administration: relatively highest
